In PubChem BioAssay (NCI) one finds GI50 and TGI data, which are given here for 44 compounds.

What is called GI50 is the concentration giving 50% growth inhibition. In general, TGI refers to the concentration giving total growth inhibition. High values mean less potent growth arrest, low ones more potent growth arrest.

The assay deals with MDA-MB-468 breast. In words: DTP human tumour cell line panel, 48 h.

The structures appear in SMILES notation.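 Exposure lasted 48 hours, with cells grown in 96-well plates and compounds tested at five concentrations. GI50: concentration for 50% inhibition of growth. TGI marks complete inhibition of growth.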

On to `c1ccc(-c2nn3c(c2-c2ccnc4cc(OCCN5CCOCC5)ccc24)CCC3)nc1`, for which the GI50 was 30900 nM and the TGI is > 100000 nM.

In the case of `N#Cc1nc(-c2ccc(F)cc2)oc1S(=O)(=O)N1CCCCC1`, the GI50 was 1640 nM and the TGI was 3300 nM.

For the compound `COC(=O)c1cc(-c2ccccc2)[nH]c1N/N=C/c1c(Cl)cccc1Cl`, the GI50 is 185 nM.

`Cc1cc2ncc(-c3cc4ccccc4c(N4CCN(C)CC4)n3)nc2cc1C`: the GI50 is 2120 nM and the TGI came out at 5110 nM.

With `COc1ccc(/C=C(/c2ccccc2)[N+](=O)[O-])c(OC)c1`, the GI50 was 1510 nM and the TGI turned out to be 3400 nM.

Turning to `O=C(CCN1CCCC1)Nc1ccc2c(NCc3ccccc3)c3ccccc3nc2c1`, the GI50 was 274 nM and the total growth inhibition concentration (TGI) came to 1060 nM.

On to `COC(=O)c1c2c(c(C)[n+]([O-])c1C)C(=O)C=C(NCc1ccccc1)C2=O`, for which the GI50 was 266 nM and the TGI worked out at 1140 nM.

As to `O=C1CCc2c(sc3[nH]c(=S)n(-c4cc(C(F)(F)F)cc(C(F)(F)F)c4)c(=O)c23)C1`, the GI50 is 248 nM and the TGI is 768 nM.

Take `CCOC(=O)NC1CCc2cc(OC)c(OC)c(OC)c2-c2ccc(OC)c(=O)cc21` (configuration not stated): the GI50 is 548 nM and the total growth inhibition concentration (TGI) was > 100000 nM.

As for `C=C1C(=O)O[C@H]2[C@H]1CC/C(COC(=O)CCCCCC(=O)OC/C1=C/CC[C@@]3(C)O[C@H]3[C@H]3OC(=O)C(=C)[C@@H]3CC1)=C\CC[C@@]1(C)O[C@@H]21`, the GI50 was 1840 nM and the TGI was found to be 7100 nM.

For `O=C(NCCN1CCOCC1)OCc1nc2nc(Cl)nc(N3CCOCC3)c2[nH]1`, the GI50 is 375 nM and the concentration for total growth inhibition (TGI) came out at 3790 nM.

Turning to `Cc1ccc2nc3ccccc3c(NCc3ccc(Cl)cc3)c2c1`, the GI50 was 1630 nM and the TGI came to 6380 nM.

Regarding `CC1=CC2C(C(O)CC3(C)C2CC(C)C32OCOC23COCO3)C2(C)C/C(=C/O)C(=O)C=C12` (configuration not stated), the GI50 was 1790 nM and the TGI stood at 3470 nM.

As for `Cc1ccc(S(=O)(=O)Oc2ccc3c4c(c(=O)oc3c2)CCCCCC4)cc1`, the GI50 is 2040 nM and the TGI is > 100000 nM.

Regarding `O=C(O)C[C@H](O)C[C@H](O)/C=C/c1c(C2CC2)nc2ccccc2c1-c1ccc(F)cc1`, the GI50 is 2370 nM and the concentration for total growth inhibition (TGI) amounted to 12100 nM.

With `COc1ccc(C(=O)Cn2c(C(=O)c3ccccc3)nc3ccccc32)cc1`, the GI50 is 817 nM and the TGI amounted to 5770 nM.

With `C=C(C)[C@@H]1CCC=C2CC[C@]3(C)[C@H](CC[C@@H]4[C@@]5(C)CCCNC(C)(C)[C@@H]5CC[C@]43C)[C@H]21`, the GI50 is 1610 nM and the TGI was 3100 nM.

Take `C/C(=C\c1ccn(-c2ccccc2N)n1)[C@@H]1C[C@@H]2O[C@]2(C)CCC[C@H](C)[C@H](O)[C@@H](C)C(=O)C(C)(C)[C@@H](O)CC(=O)O1`: the GI50 is 35.7 nM and the TGI is 732 nM.

As for `CCCCNNC(=O)c1ccc(Br)cc1`, the GI50 was 1710 nM and the TGI was > 50000 nM.

With `Fc1ccc(-c2ncn(C3CCNCC3)c2-c2ccnc(Oc3ccc4c(c3)OCO4)n2)cc1`, the GI50 is 3190 nM and the TGI was 8020 nM.

Consider `CN(C)c1ccc(Nc2c3ccccc3nc3ccccc23)cc1`, for which the GI50 was 632 nM and the TGI was found to be 2110 nM.

On to `NC(=N\N=C/c1ccc(O)cc1)/C(N)=N\N=C/c1ccc(O)cc1`, for which the GI50 is > 100000 nM and the TGI was > 100000 nM.

On to `CCn1c(=O)c2nc(SC)sc2n(-c2ccc(C)cc2)c1=O`, for which the GI50 is 62000 nM and the TGI is > 100000 nM.

As to `CCOc1ccc2c(-c3ccnc(Nc4cc(OC)cc(C(F)(F)F)c4)n3)cnn2n1`, the GI50 was 836 nM and the total growth inhibition concentration (TGI) is > 20500 nM.

For the compound `COc1ccc2c(c1)nc(NNC(=O)c1cnccn1)c1cccn12`, the GI50 is 227 nM and the TGI worked out at 1660 nM.

Turning to `O=C(Nc1ccc(F)c(F)c1)c1cc(-c2ccc(F)cc2F)ccc1O`, the GI50 is 1120 nM and the TGI was 4350 nM.

Consider `Cc1ccc(/C=C/c2c(C(=O)/C=C/c3ccccc3)c(C)nc3ccccc23)cc1`, for which the GI50 is 1800 nM and the TGI is 3470 nM.

For `C=CC(=O)N1CCC(c2ccc(C(N)=O)c(-c3ccc(Oc4ccccc4)cc3)n2)CC1`, the GI50 is 5760 nM and the TGI is 49500 nM.

With `Cc1ccc(/C=C(\C#N)c2cc3ccccc3n2C)cc1`, the GI50 is 406 nM and the TGI was > 100000 nM.

Regarding `CC(C)(C)c1ccc(C(O)CCCN2CCC(C(O)(c3ccccc3)c3ccccc3)CC2)cc1` (configuration not stated), the GI50 is 1150 nM and the TGI amounted to 2450 nM.

As for `COc1ccc([C@H](CC(=O)O)N2CCN(CCCc3ccc4c(n3)NCCC4)C2=O)cn1`, the GI50 is 111 nM and the TGI was 479 nM.

`C=C(C)[C@@H]1CC[C@]2(COP(=O)(OCC)OCC)CC[C@]3(C)[C@H](CC[C@@H]4[C@@]5(C)CCCNC(C)(C)[C@@H]5CC[C@]43C)[C@@H]12`: the GI50 was 1390 nM and the TGI was found to be 2910 nM.

Turning to `CNC(=O)NCC1OC(n2cnc3c(NC(=O)Nc4ccccc4)ncnc32)C(O[Si](C)(C)C(C)(C)C)C1O[Si](C)(C)C(C)(C)C` (configuration not stated), the GI50 was 3350 nM and the TGI is 13900 nM.

Regarding `CCCCCCCCCCCC1=NC(C)(C)CN1C(C)(C)CO`, the GI50 is 1820 nM and the TGI is 3670 nM.

Take `Cc1cn2c(/C=C3/C(=O)Nc4c3ccc3ccccc43)c(C(F)(F)F)nc2s1`: the GI50 was 1460 nM and the TGI was > 100000 nM.

On to `COc1cccc2c1C=CC1(O2)Oc2cccc(OC)c2C=C1C` (configuration not stated), for which the 50% growth inhibitory concentration (GI50) is 402 nM and the TGI is > 100000 nM.

Regarding `Nc1ccn(C2CC(F)C(CO)O2)c(=O)n1` (configuration not stated), the GI50 is > 100000 nM and the TGI was > 100000 nM.

Take `CCC(=O)N1C/C(=C/c2ccc(Cl)cc2)C(=O)/C(=C/c2ccc(Cl)cc2)C1`: the GI50 was 704 nM and the TGI turned out to be 2080 nM.

In the case of `COc1ccc(-c2cc(=O)n(-c3nc4ccccc4[nH]3)[nH]2)cc1OC`, the GI50 is 4300 nM and the TGI is 44700 nM.

Take `CN(C)C(=O)Nc1nc2cc(Cl)c(Cl)cc2[nH]1`: the GI50 was 537 nM and the TGI was > 91000 nM.

For the compound `COc1c(C(C)=O)c(OCCCCOc2c(C(C)=O)c(OC)c3ccoc3c2OC)c(OC)c2occc12`, the GI50 is 2310 nM and the TGI was > 100000 nM.

For the compound `O=c1c2cc(C(F)(F)F)ccc2sc2c(NCCCNCCO)nc3ccccc3c12`, the GI50 is 1570 nM and the TGI was 3130 nM.

Regarding `O=[N+]([O-])c1cc[n+]([O-])c2ccccc12`, the GI50 is 135 nM and the TGI worked out at 324 nM.

Consider `Oc1c(C(Nc2ccccc2Br)c2ccccc2)ccc2cccnc12` (configuration not stated), for which the GI50 was 1520 nM and the TGI was found to be 6120 nM.
